Experiments:
[1] = tested on: AMPARs; assay: Inhibition of native AMPAR responses in cultured hippocampal neurons; assay type: cell-based, rat; details: cyclothiazide 10 μM
Protocol: FIGURE 8 The effect of compound 6 on peak and steady-state responses of native NMDARs, AMPARs, and GABARs. (A) Examples of traces obtained from cultured hippocampal neurons. […] Error bars represent SD from five independent measurements. Asterisks mark significance at the level of P < 0.05 (Paired t-test).
FIGURE 9 The effect of compound 6 on native NMDARs, AMPARs, and GABARs. (A) Example of traces obtained from cultured hippocampal neurons. Compound 6 (10 or 30 μM) was co-applied with NMDA (100 μM), AMPA (100 μM), and GABA (5 μM) (duration of agonist and steroid application is indicated by filled and open bars, respectively). […]
Electrophysiological experiments were performed on HEK293 cells transfected with plasmids encoding rat GluN1-1a/GluN2A-D and GFP genes as described previously, ([Petrovic et al., 2005]; [Cais et al., 2008]; [Korinek et al., 2010]) or on primary hippocampal neurons prepared from P0–P1 rats, plated on collagen/poly-D-lysine-coated glass coverslips at a density of ∼50,000 cells/cm^2, and grown in Neurobasal A medium with B27 Supplement (Gibco). […] Agonist-induced responses were low-pass filtered at 2 kHz, digitally sampled at 5 kHz, and analyzed with pClamp software version 10.5 (Molecular Devices). […] Action potentials were recorded in the current-clamp mode from primary hippocampal mass-culture neurons at 14–15 days in vitro. […]

[2] = tested on: HepG2 cells; assay: ROS induction (CM-H2DCFDA); assay type: cell-based; details: Homo sapiens, HepG2, 72 h; read-out: ROS induction EC50
Protocol: (A) Hepatotoxicity provoked by compound 4 was assessed after 72 h incubation of HepG2 cells in low glucose medium (5 mM) in the presence of compound 4 (0.25–100 μM). (B) Mitochondrial toxicity was determined after 24 h incubation of HepG2 cells in either high glucose medium (25 mM) or galactose medium (10 mM) in the presence of compound 4 (2.5–150 μM). Cell viabilities were recorded in triplicates in three independent experiments and expressed as percentage of vehicle control ± SD and IC50 values were determined by GraphPad Prism software using following equation: Y = Bottom + (Top–Bottom)/(1 + 10ˆ((LogIC50-X)^∗HillSlope)), where IC50 is the concentration of compound 4 that inhibits cell viability half way between Bottom and Top plateaus, X is compound 4 concentration and HillSlope describes the steepness of the family of curves. […] (C) Concentration-dependent effect on ROS level. HepG2 cells were treated with compound 4 (0.25–100 μM) for 72 h, and then the intracellular level of total ROS in relative fluorescence units (RFU) was detected. The data are presented as the mean ± SD for at least three independent experiments and each experiment was carried out in triplicate. Final concentration of DMSO in samples was 1%. […] Single asterisks (^∗) indicate a significant difference (P < 0.05) compared to 1% DMSO control (one-way ANOVA with Dunnett’s post-test).
The effect of neurosteroids on oxidative stress was determined using general oxidative stress indicator CM-H2DCFDA (Thermo Fisher Scientific, Waltham, MA, United States) according to the manufacturer’s instructions. Briefly HepG2 cells were seeded in a 96-well plate at a density of 13,500 cells per well. After 24 h, the tested neurosteroids were added to the culture media and incubated for 72 h. Subsequently, cells were washed with HBSS, treated with 100 μL of 1 μM CM-H2DCF-DA solution in HBSS and incubated for 1 h in the dark at 37°C. Finally, cells were washed three times with HBSS and the fluorescence was measured using 495 excitation and 527 emission in fluorescence microplate reader (Cytation 3, Winooski, VT, United States). IC50 index values were determined by GraphPad Prism version 5.00 for Windows (GraphPad Software, La Jolla, CA, United States).

C[C@@]12CCC[C@H]1[C@@H]1CC[C@@H]3C[C@H](NC(=O)[C@@H](N)CC(=O)O)CC[C@]3(C)[C@H]1CC2 [Compound 6, (S)-3-amino-4-(((3R,5R,8S,9S,10S,13S,14S)-10,13-dimethylhexadecahydro-1H-cyclopenta[a]phenanthren-3-yl)amino)-4-oxobutanoic acid]
effect on amplitude of AMPA-induced responses ([1]; AMPA 100 μM): only little affected | potency estimated from few doses ([1]; estimated from single dose (30 μM), Hill coefficient fixed at 1.2, 100 μM AMPA, read-out: IC50 at AMPAR responses (estimate)): 276 ± 179 µM | EC50 [2]: > 200 µM
